Patent publication US20250270170A1, “2,3-DIMETHOXY-5-METHYL-1,4-BENZOQUINONE ALKYL ALCOHOL DERIVATIVE AND USE THEREOF” (BEIJING ANJIANXI BIO-MEDICAL TECHNOLOGY CO., LTD., priority 2021, published 2025)
Marks after values point to notes of the source that are not given here.

Assays:
[1] = test system: human esophageal cancer ECA109 transplanted tumor; experiment: Example 8: tumor growth in ECA109 transplanted tumor model; type: in vivo, nude mice; conditions: DDP 5 mg/kg i.p. QW×4
From the text: The assay animals, calculation of tumor volume (TV), end of assay, data recording, calculation formula of tumor growth inhibition rate TGI (%), and statistical analysis method were the same as those in Example 3; the preparation of the administration formulation of the compound of formula (I) was the same as that in Example 5. An appropriate amount of CMC-Na solid was weighed, and an appropriate volume of deionized water was firstly added. The mixture was vortexed and stirred until the solid was completely dispersed and evenly distributed, to give a 0.5% CMC-Na aqueous solution, which was stored at 2 to 8° C. in a refrigerator. An appropriate amount of DDP was weighed and put into a glass bottle, and an appropriate amount of physiological saline was added to the bottle. […] This solution was prepared before each administration. Human esophageal cancer cells ECA109 were obtained from the Cell Bank of Wuhan University (CCTCC, cryopreserved in liquid nitrogen in the laboratory). […] The cells were pipetted with a pipette to disperse them evenly, and the cells were put into a 50-mL centrifuge tube, which was placed in an ice box. A 1-mL syringe was used to draw the cell suspension, which was injected subcutaneously into the axilla of the front right limb of a […]. Each animal was inoculated with 200 μL (1.0×10^7 cells/mouse) to establish an ECA109 transplanted tumor model in nude mice. After the inoculation, the animal status and tumor growth were regularly observed, and the tumor diameter was measured using an electronic vernier caliper. The data were input into an Excel spreadsheet to calculate the tumor volume. When the tumor volume reached 100 to 300 mm^3, animals in good health and with similar tumor volumes were selected and divided into groups using randomized block method. The day of grouping was regarded as the first day of the assay (D1). After the start of the assay, the tumor diameter was measured twice a week, the tumor volume was calculated, and the animal body weight was also weighed and recorded. [table]

[2] = Example 7: body weight of NCI-N87 tumor-bearing nude mice; type: in vivo; conditions: DDP 4/2/1/4 mg/kg IP
A549 cells = experiment: CCK-8 cell proliferation assay, A549; type: cell-based; conditions: Homo sapiens
Description: (1) Cells in the logarithmic growth phase were taken and digested to make a cell suspension. 20 μl of the cell suspension was taken with a pipette, and added to a CountStar disposable cell counting plate for cell counting, and the counting results were recorded. The cell concentration was adjusted to 30,000 to 40,000 cells/ml (note: different cells have different growth rates, so the number of cells in each well was slightly different).
(2) A 96-well plate was taken. Since the wells in the outermost circle of the culture plate were easy to evaporate and dry, causing inaccurate volumes, and increasing errors, 100 μl of PBS was added to the wells in the outermost circle, which were not used as assay wells.
(3) The adjusted cell suspension was added to the 96-well plate, with 100 μl in each well, resulting approximately 3000 to 4000 cells in each well. The plate was placed in a 37° C. incubator under the condition of 5% CO2 for cell culture, and the drug was added when the cells adhered to the wall.
(4) Drug dilution. The concentration gradient was set as: 0 μM, 10 μM, 50 μM, 100 μM, and 200 μM, with 3 duplicates for each concentration. In addition, blank control wells containing only culture medium and drug without cells were also set.
(5) The plate was incubated in the incubator for 24 h, 48 h and 72 h, respectively. After reaching the set time point, the 96-well plate was taken out from the incubator, and 10 μl of CCK-8 reagent was added to each well, taking care to avoid bubbles. The plate was shaked to mix evenly, and put back into the incubator to culture for another 2 hours.
(6) To detect the absorbance, the 96-well plate was placed in a […], and the absorbance value (OD value) at 450 nm was detected. The data was recorded. Cell viability=(OD value of the assay well−OD value of the blank control well)/(OD value of the solvent control well−OD value of the blank control well)×100%.
(7) The data was imported into GraphPad Prism5 for plotting. The IC50 values were calculated, and the curves were drawn.

NCI-H460 cells = experiment: Colony formation assay, NCI-H460; type: cell-based, human; conditions: 50 μM and 150 μM vs 0 μM, about 2 weeks
Description: (1) The cell status was observed under a microscope. Cells in the logarithmic growth phase were selected and digested to make a cell suspension. 20 μl of the cell suspension was taken with a pipette and added to the CountStar disposable cell counting plate for cell counting, and the counting results were recorded.
(2) A 6-well culture plate was used for colony formation assay. Approximately 1,000 cells were inoculated into each well, and the complete culture medium was added to make up the volume to 2.5 ml per well. The cells were shaked in a figure-8 pattern to disperse the cells evenly. The next day, the compound of formula (I) at different concentrations (0 μM, 50 μM, and 150 μM) were added to the corresponding wells according to the assay plan, and incubated in an incubator at 37° C. with 5% CO2 for about 2 weeks. The culture was terminated when visible colonies appeared.
(3) The culture plate was taken out, and the old culture medium was discarded. The cells were gently washed twice with PBS.
(4) 500 μl of 4% paraformaldehyde fixative was added to each well to fix the cells at room temperature for 15 minutes, and then the fixative was discarded.
(5) 500 μl of 0.1% crystal violet solution was added to each well, and cells were stained at room temperature for at least 15 minutes. The crystal violet was discarded, and the staining solution was slowly washed away with running water. […]

N.N.[Cl][Pt][Cl] [DDP, cisplatin]
Mean tumor volume ([1]; D1): 193 ± 9 mm^3
Mean tumor volume ([1]; D5): 204 ± 5 mm^3
tumor growth inhibition rate (TGI) ([1]; D5): (64%)
Mean tumor volume ([1]; D8): 203 ± 11** mm^3
tumor growth inhibition rate (TGI) ([1]; D8): (87%)
Mean tumor volume ([1]; D12): 215 ± 10** mm^3
tumor growth inhibition rate (TGI) ([1]; D12): (79%)
Mean tumor volume ([1]; D15): 224 ± 8** mm^3
tumor growth inhibition rate (TGI) ([1]; D15): (79%)
Mean tumor volume ([1]; D19): 247 ± 8** mm^3
tumor growth inhibition rate (TGI) ([1]; D19): (67%)
Mean tumor volume ([1]; D22): 259 ± 8** mm^3
tumor growth inhibition rate (TGI) ([1]; D22): (63%)
Mean tumor volume ([1]; D26): 276 ± 9** mm^3
tumor growth inhibition rate (TGI) ([1]; D26): (58%)
Mean tumor volume ([1]; D29): 285 ± 9** mm^3
tumor growth inhibition rate (TGI) ([1]; D29): (59%)
Mean tumor volume ([1]; D33): 259 ± 12** mm^3
tumor growth inhibition rate (TGI) ([1]; D33): (73%)
Mean tumor volume ([1]; D36): 292 ± 11** mm^3
tumor growth inhibition rate (TGI) ([1]; D36): (60%)
Animal body weight ([2]; D12): 18.6 ± 0.5 g
Animal body weight ([2]; D16): 17.9 ± 0.3 g
body weight loss rate ([2]; D16): 3.9%
Animal body weight ([2]; D19): 18.0 ± 0.4 g
body weight loss rate ([2]; D19): 3.3%
Animal body weight ([2]; D23): 16.9 ± 0.5 g
body weight loss rate ([2]; D23): 9.2%
Animal body weight ([2]; D26): 17.9 ± 0.5 g
body weight loss rate ([2]; D26): 3.4%
Animal body weight ([2]; D30): 17.5 ± 0.3 g
body weight loss rate ([2]; D30): 6.0%
Animal body weight ([2]; D33): 18.6 ± 0.4 g
body weight loss rate ([2]; D33): 0.090%
Animal body weight ([2]; D37): 18.9 ± 0.4 g
body weight loss rate ([2]; D37): −2.0%
Animal body weight ([2]; D40): 19.2 ± 0.4 g
body weight loss rate ([2]; D40): −3.1%
Animal body weight ([2]; D44): 18.3 ± 0.3 g
body weight loss rate ([2]; D44): 1.4%

COC1=C(OC)C(=O)C(CCCCCCCCCCOC(=O)Cc2c(C)n(C(=O)c3ccc(Cl)cc3)c3ccc(OC)cc23)=C(C)C1=O [compound of formula (I)]
IC50 (A549 cells; 24 h): 213.2 ± 1.22 µM
IC50 (A549 cells; 48 h): 55.5 ± 1.84 µM
IC50 (A549 cells; 72 h): 39.7 ± 0.98 µM
colony-forming ability (NCI-H460 cells): decreased significantly
